Here are results for 13 compounds from EP4722219A1 (Gan & Lee Pharmaceuticals Co., Ltd., priority 2023, dated 2024).

Bounds are passed on as bounds.

One assay addresses T1, AR protein (Homo sapiens, UniProt P10275, T878A).
T1 construct: host or cells: LNCaP FGC
T1 sequence (P10275 1-920 T878A): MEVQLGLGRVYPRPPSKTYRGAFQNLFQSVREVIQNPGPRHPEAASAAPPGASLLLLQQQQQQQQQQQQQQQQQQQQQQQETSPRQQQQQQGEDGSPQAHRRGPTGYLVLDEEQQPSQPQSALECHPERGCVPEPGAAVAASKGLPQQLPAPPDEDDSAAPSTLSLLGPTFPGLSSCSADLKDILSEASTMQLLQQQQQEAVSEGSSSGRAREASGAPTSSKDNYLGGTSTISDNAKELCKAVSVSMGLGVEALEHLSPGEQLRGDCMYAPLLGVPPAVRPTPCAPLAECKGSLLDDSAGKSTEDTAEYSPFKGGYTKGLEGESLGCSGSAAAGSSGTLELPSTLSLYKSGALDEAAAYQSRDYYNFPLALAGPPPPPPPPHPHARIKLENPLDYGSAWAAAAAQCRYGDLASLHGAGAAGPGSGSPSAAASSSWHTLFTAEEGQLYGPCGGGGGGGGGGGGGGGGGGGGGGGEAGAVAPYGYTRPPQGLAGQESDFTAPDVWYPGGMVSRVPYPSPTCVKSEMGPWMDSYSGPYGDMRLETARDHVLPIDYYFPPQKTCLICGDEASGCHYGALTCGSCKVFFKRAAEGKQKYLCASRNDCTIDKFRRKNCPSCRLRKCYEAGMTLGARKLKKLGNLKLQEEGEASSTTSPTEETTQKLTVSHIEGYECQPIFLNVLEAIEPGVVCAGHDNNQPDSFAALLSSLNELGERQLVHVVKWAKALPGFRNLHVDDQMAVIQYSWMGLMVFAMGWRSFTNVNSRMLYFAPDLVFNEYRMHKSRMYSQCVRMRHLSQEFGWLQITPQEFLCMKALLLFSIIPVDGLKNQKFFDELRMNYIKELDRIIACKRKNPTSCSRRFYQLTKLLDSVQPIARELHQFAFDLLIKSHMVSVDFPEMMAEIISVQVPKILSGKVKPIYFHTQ
The experiment in a line: AR protein degradation in LNCaP cells (Western blot). Conditions: 8 hours. The assay is classed as cell-based. The essentials:
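AR degradation rate derived from Western blot band densitometry, referenced to GAPDH, using total lysates of LNCaP cells treated 8 h with compound versus solvent control. Detection used infrared dual-color imaging after SDS-PAGE and PVDF transfer.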

Another assay has as its system VCaP cells. The assay can be described thus: Inhibition of VCaP cell proliferation (WST-8). The assay is classed as cell-based. The conditions noted are these: Homo sapiens, 168 hours. The essentials: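 Proliferation was read on day 9 as WST-8 absorbance at 450 nm after VCaP cells (15,000/well, DMEM/10% FBS, 37°C) were exposed from day 2 to compound at 9 points, 5-fold serial dilution, top final concentration 10 µM.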

At AR protein (10 nM), `C[C@H]1CC2(CCN(c3ccc(N4CCC(CN5CCC6(CCc7cc(C(=O)N[C@H]8CCC(=O)NC8=O)c(F)cc7O6)CC5)CC4)cc3)CC2)CN1c1ccc(C#N)c(Cl)c1` [A-P-42, 1'-((1-(4-((S)-2-(3-chloro-4-cyanophenyl)-3-methyl-2,8-diazaspiro[4.5]decan-8-yl)phenyl)piperidin-4-yl)methyl)-N-((S)-2,6-dioxopiperidin-3-yl)-7-fluorospiro[chroman-2,4'-piperidin]-6-carboxamide] displayed a percent AR protein degradation at a fixed concentration at 0.01 µM of 44%. This compound also registered a percent AR protein degradation at a fixed concentration at 0.1 µM on AR protein (100 nM) of 77%. For the same compound, the IC50 in the assay on VCaP cells was more than 10 µM.

For `COc1cc(O[C@H]2C(C)(C)[C@H](NC(=O)c3ccc(N4CCC(C)(CN5CCC6(CCc7cc(C(=O)N[C@H]8CCC(=O)NC8=O)c(F)cc7O6)CC5)CC4)cn3)C2(C)C)ccc1C#N` [A-P-43, 1'-((1-(6-(((1r,3r)-3-(4-cyano-3-methoxyphenoxy)-2,2,4,4-tetramethylcyclobutyl)carbamoyl)pyridin-3-yl)-4-methylpiperidin-4-yl)methyl)-N-((S)-2,6-dioxopiperidin-3-yl)-7-fluorospiro[chroman-2,4'-piperidin]-6-carboxamide], the “Degradation of AR protein in LNCaP cells, 10 nM (%)” value (shortened to “Degradation … 10 nM (%)”) on AR protein (10 nM) was determined as 8%. Also, the “Degradation of AR protein in LNCaP cells, 100 nM (%)” value (“Degradation … 100 nM (%)” below) on AR protein (100 nM) came to 35%. Further, in the assay on VCaP cells, the IC50 was found to be 1.55 µM.

Take `CC1(C)[C@H](NC(=O)c2ccc(N3CCC(CN4CCC5(CCc6cc(C(=O)N[C@H]7CCC(=O)NC7=O)c(F)cc6O5)CC4)CC3)nc2)C(C)(C)[C@H]1Oc1ccc(C#N)c(C(F)(F)F)c1` [A-P-45, 1'-((1-(5-(((1R,3R)-3-(4-cyano-3-(trifluoromethyl)phenoxy)-2,2,4,4-tetramethylcyclobutyl)carbamoyl)pyridin-2-yl)piperidin-4-yl)methyl)-N-((S)-2,6-dioxopiperidin-3-yl)-7-fluorospiro[chroman-2,4'-piperidin]-6-carboxamide]: the “Degradation … 10 nM (%)” value at AR protein (10 nM) is on record as 52%. Further, at AR protein (100 nM), the “Degradation … 100 nM (%)” value was 85%. Further, the IC50 in the assay with VCaP cells was 0.3 µM.

Regarding `COc1cc(O[C@H]2C(C)(C)[C@H](NC(=O)c3ccc(N4CCC(C)(CN5CCC6(CCc7cc(C(=O)N[C@H]8CCC(=O)NC8=O)c(F)cc7O6)CC5)CC4)nn3)C2(C)C)ccc1C#N` [A-P-48, 1'-((1-(6-(((1R,3R)-3-(4-cyano-3-methoxyphenoxy)-2,2,4,4-tetramethylcyclobutyl)carbamoyl)pyridazin-3-yl)-4-methylpiperidin-4-yl)methyl)-N-((S)-2,6-dioxopiperidin-3-yl)-7-fluorospiro[chroman-2,4'-piperidin]-6-carboxamide], on AR protein (10 nM), the “Degradation … 10 nM (%)” value is recorded as 45%. The “Degradation … 100 nM (%)” value at AR protein (100 nM) is reported as 63%. In the assay on VCaP cells, this compound yielded a 50% inhibitory concentration (IC50) of 0.33 µM.

As to `COc1cc(O[C@H]2C(C)(C)[C@H](NC(=O)c3ccc(N4CCC(C)(CN5CCC6(CCc7cc(C(=O)N[C@H]8CCC(=O)NC8=O)c(F)cc7O6)CC5)CC4)nc3)C2(C)C)ccc1C#N` [A-P-49, 1'-((1-(5-(((1R,3R)-3-(4-cyano-3-methoxyphenoxy)-2,2,4,4-tetramethylcyclobutyl)carbamoyl)pyridin-2-yl)-4-methylpiperidin-4-yl)methyl)-N-((S)-2,6-dioxopiperidin-3-yl)-7-fluorospiro[chroman-2,4'-piperidin]-6-carboxamide], on AR protein (10 nM), the “Degradation … 10 nM (%)” value is listed as 48%. Further, the “Degradation … 100 nM (%)” value on AR protein (100 nM) turned out to be 62%. This compound showed an IC50 in the assay on VCaP cells of 0.041 µM.

Regarding `CC1(C)[C@H](NC(=O)c2ccc(N3CCC(CN4CCC5(CCc6cc(C(=O)N[C@H]7CCC(=O)NC7=O)c(F)cc6O5)CC4)CC3)nc2)C(C)(C)[C@H]1Oc1ccc(C#N)c(Cl)c1` [A-P-50, 1'-((1-(5-(((1R,3R)-3-(3-chloro-4-cyanophenoxy)-2,2,4,4-tetramethylcyclobutyl)carbamoyl)pyridin-2-yl)piperidin-4-yl)methyl)-N-((S)-2,6-dioxopiperidin-3-yl)-7-fluorospiro[chroman-2,4'-piperidin]-6-carboxamide], the “Degradation … 10 nM (%)” value on AR protein (10 nM) was 73%. In addition, the “Degradation … 100 nM (%)” value on AR protein (100 nM) was determined as 91%. The compound also yielded a 50% inhibitory concentration (IC50) in the assay with VCaP cells of 0.051 µM.

For `COc1cc(O[C@H]2C(C)(C)[C@H](NC(=O)c3ccc(N4CCC(F)(CN5CCC6(CCc7cc(C(=O)N[C@H]8CCC(=O)NC8=O)c(F)cc7O6)CC5)CC4)cc3)C2(C)C)ccc1C#N` [A-P-52, 1'-((1-(4-(((1r,3r)-3-(4-cyano-3-methoxyphenoxy)-2,2,4,4-tetramethylcyclobutyl)carbamoyl)phenyl)-4-fluoropiperidin-4-yl)methyl)-N-((S)-2,6-dioxopiperidin-3-yl)-7-fluorospiro[chroman-2,4'-piperidin]-6-carboxamide], the “Degradation … 10 nM (%)” value at AR protein (10 nM) is recorded as -56%. Moreover, the “Degradation … 100 nM (%)” value at AR protein (100 nM) is on record as 23%. Half-maximal inhibition in the assay on VCaP cells (IC50) was put at 4.24 µM.

`COc1cc(O[C@H]2C(C)(C)[C@H](NC(=O)c3ccc(N4CCC(CN5CCN6c7ccc(C(=O)N[C@H]8CCC(=O)NC8=O)cc7OC[C@@H]6C5)CC4)cc3)C2(C)C)ccc1C#N` [A-P-67]: the “Degradation … 10 nM (%)” value at AR protein (10 nM) is reported as 55%. Besides, the “Degradation … 100 nM (%)” value at AR protein (100 nM) was 85%. Also, half-maximal inhibition in the assay on VCaP cells (IC50) was put at 0.17 µM.

On to `C[C@H]1CC2(CCN(c3ccc(C(=O)N4CCC(CN5CCN6c7ccc(C(=O)N[C@H]8CCC(=O)NC8=O)cc7OC[C@H]6C5)CC4)cc3)CC2)CN1c1ccc(C#N)c(Cl)c1` [A-P-68], for which the “Degradation … 10 nM (%)” value at AR protein (10 nM) is on record as 51%. The “Degradation … 100 nM (%)” value on AR protein (100 nM) came out at 84%. Also, in the assay with VCaP cells, the midpoint of inhibition, the IC50, lay at 0.0045 µM.

In the case of `C[C@H]1CC2(CCN(c3ccc(C(=O)N4CCC(CN5CCN6c7ccc(C(=O)N[C@H]8CCC(=O)NC8=O)cc7OC[C@@H]6C5)CC4)cc3)CC2)CN1c1ccc(C#N)c(Cl)c1` [A-P-69], the “Degradation … 10 nM (%)” value on AR protein (10 nM) amounted to 52%. The “Degradation … 100 nM (%)” value at AR protein (100 nM) is reported as 79%. In addition, the 50% inhibitory concentration (IC50) in the assay on VCaP cells is 1.32 µM.

In the case of `COc1cc(O[C@H]2C(C)(C)[C@H](NC(=O)c3ccc(N4CCC(CN5CCC6(CC5)COc5c6ccc(C(=O)N[C@H]6CCC(=O)NC6=O)c5F)CC4)cc3)C2(C)C)ccc1C#N` [A-P-83], the “Degradation … 10 nM (%)” value on AR protein (10 nM) amounted to 41%. Moreover, the “Degradation … 100 nM (%)” value at AR protein (100 nM) was determined as 65%. In addition, in the assay on VCaP cells, the IC50 came to 2.58 µM.

Regarding `COc1cc(O[C@H]2C(C)(C)[C@H](NC(=O)c3ccc(N4CCC(F)(CN5CCC6(CC5)COc5c6ccc(C(=O)N[C@H]6CCC(=O)NC6=O)c5F)CC4)cc3)C2(C)C)ccc1C#N` [A-P-84], at AR protein (10 nM), the “Degradation … 10 nM (%)” value is recorded as -6%. Moreover, the “Degradation … 100 nM (%)” value on AR protein (100 nM) is 33%. Also, the 50% inhibitory concentration (IC50) with VCaP cells is 0.49 µM.

In the case of `COc1cc(O[C@H]2C(C)(C)[C@H](NC(=O)c3ccc(N4CCC(C)(CN5CCC6(CC5)COc5c6ccc(C(=O)N[C@H]6CCC(=O)NC6=O)c5F)CC4)cc3)C2(C)C)ccc1C#N` [A-P-85, 1'-((1-(4-(((1r,3r)-3-(4-cyano-3-methoxyphenoxy)-2,2,4,4-tetramethylcyclobutyl)carbamoyl)phenyl)-4-methylpiperidin-4-yl)methyl)-N-((S)-2,6-dioxopiperidin-3-yl)-7-fluoro-2H-spiro[benzofuran-3,4'-piperidin]-6-carboxamide], the “Degradation … 10 nM (%)” value at AR protein (10 nM) worked out at 7%. In addition, at AR protein (100 nM), the “Degradation … 100 nM (%)” value was 40%. The compound further came in with a concentration for half-maximal inhibition (IC50) with VCaP cells of 0.54 µM.
